# Key:
# U-251 [1] = assay: Cytotoxicity against human U-251MG cells assessed as reduction in cell viability measured after 24 hrs by MTT assay; format: functional, cell-based; conditions: U-251, 24 h
# [2] = Toxicity in human U-87MG cells xenografted in nude mouse assessed as lethal dose at 10 mg/kg, ip administered once daily for 20 days relative to control; format: organism-based; conditions: in vivo, time 20 day
# U-118-MG = assay: Cytotoxicity against human U-118-MG cells assessed as reduction in cell viability measured after 24 hrs by MTT assay; format: functional, cell-based
# U-87 MG [3] = assay: Cytotoxicity against human U-87 MG cells assessed as reduction in cell viability measured after 24 hrs by MTT assay; format: functional, cell-based, U-87MG ATCC
# A 172 = assay: Cytotoxicity against human A-172 cells assessed as reduction in cell viability measured after 24 hrs by MTT assay; format: functional, cell-based; conditions: A 172, 24 h
# U-87 MG [4] = assay: Antiproliferative activity against human U-87 MG cells assessed as reduction in cell viability incubated for 72 hrs by Presto-Blue cell viability assay; format: functional, cell-based, U-87MG ATCC
# U-251 [5] = assay: Induction of apoptosis in human U-251MG cells assessed as increase in PARP cleavage at 12.5 to 100 uM incubated for 24 hrs by Western blot analysis; format: functional; conditions: dose 12.5-100 µM
# [6] = target: T1, Dual specificity tyrosine-phosphorylation-regulated kinase 1A (Homo sapiens, UniProt Q13627); assay: Inhibition of DYRK1A (unknown origin) incubated for 2 hrs in presence of [gamma-33P]-ATP by radioactivity based assay
# U-87 MG [7] = assay: Antitumor activity against human U-87 MG cells xenografted in mouse model assessed as reduction in tumor growth at 15 mg/kg, ip administered once daily for 5 days relative to control; format: functional, U-87MG ATCC; set-up: scale not given: the % may be the effect or the level left; conditions: time 5 day
# U-87 MG [8] = assay: Antitumor activity against human U-87 MG cells xenografted in mouse model assessed as reduction in tumor growth at 60 mg/kg, ip administered once daily for 5 days relative to control; format: functional, U-87MG ATCC; set-up: scale not given: the % may be the effect or the level left; conditions: time 5 day
# H4 = assay: Antiproliferative activity against human H4 cells assessed as reduction in cell viability incubated for 72 hrs by Presto-Blue cell viability assay; format: functional, cell-based; conditions: H4, 72 h
# [9] = target: T1, Dual specificity tyrosine-phosphorylation-regulated kinase 1A; assay: Inhibition of DYRK1A (unknown origin) by TR-FRET assay
# U-87 MG [10] = assay: Antiproliferative activity against human U-87 MG cells by MTT assay; format: functional, cell-based, U-87MG ATCC
# U-87 MG [11] = assay: Antiproliferative activity against human U-87 MG cells measured for 48 hrs by MTT assay; format: functional, cell-based, U-87MG ATCC
# C6 = assay: Antiproliferative activity against rat C6 cells by MTT assay; format: functional, cell-based
# [12] = Cytotoxicity against rat ACNU-resistant C6/ACNU cells assessed as reduction in cell growth in presence of reserpine at 20 uM incubated for 24 hrs by MTT assay; format: functional, cell-based
# [13] = Cytotoxicity against rat ACNU-resistant C6/ACNU cells assessed as reduction in cell growth in presence of reserpine at 10 uM incubated for 24 hrs by MTT assay; format: functional, cell-based
# [14] = Cytotoxicity against rat ACNU-resistant C6 cells assessed as reduction in cell growth incubated for 24 hrs by MTT assay; format: functional, cell-based
# [15] = Cytotoxicity against rat ACNU-resistant C6 cell assessed as reduction in cell growth in presence of reserpine at 10 uM incubated for 24 hrs by MTT assay; format: functional, cell-based
# [16] = Antitumor activity against rat C6/ACNUcells implanted in Wistar rat assessed as increase in life span at 1 mg/kg relative to control; format: functional, C6/ACNU
# [17] = Cytotoxicity against rat ACNU-resistant C6/ACNU cells assessed as reduction in cell growth incubated for 24 hrs by MTT assay; format: functional, cell-based
# [18] = Cytotoxicity against rat ACNU-resistant C6 cell assessed as reduction in cell growth in presence of reserpine at 20 uM incubated for 24 hrs by MTT assay; format: functional, cell-based
smiles,measurement,setting,value
COc1cc2c(cc1OC)[C@@]13CCN4CC5=CCO[C@H]6CC(=O)N2[C@H]1[C@H]6[C@H]5C[C@H]43 [BRUCINE],IC50,U-251 [1],614 µM
same,LD50 at 480 h,[2],13.2 mg/kg
same,IC50,U-118-MG,536 µM
same,IC50,U-87 MG [3],604 µM
same,IC50,A 172,527 µM
Cc1nccc2c1[nH]c1cc(O)ccc12,IC50,U-87 MG [4],19.1 µM
same,Activity,U-251 [5],486%
same,IC50,[6],0.016 µM
same,Activity,U-87 MG [7],28.2%
same,Activity,U-87 MG [8],38.1%
same,IC50,H4,10.9 µM
same,IC50,[9],0.07 µM
CN1c2ccccc2C(=O)N2CCc3c([nH]c4ccccc34)[C@H]21,IC50,U-87 MG [10],3.7 µM
same,IC50,U-87 MG [11],5.21 µM
same,IC50,C6,4.3 µM
Cc1ncc(CNC(=O)N(CCCl)N=O)c(N)n1.Cl [NIMUSTINE HYDROCHLORIDE],IC50,[12],2.5 µg/mL
same,IC50,[13],8 µg/mL
same,IC50,[14],8.3 µg/mL
same,IC50,[15],4.1 µg/mL
same,Activity,[16],143%
same,IC50,[17],120 µg/mL
same,IC50,[18],3.1 µg/mL

# From ChEMBL document CHEMBL6115010, “Targeting glioma with heteroaromatic alkaloids: A review of potential therapeutics” (Bioorg Med Chem, 2025)
